{
  "source": "ChEMBL document CHEMBL3399943",
  "about": "“In vitro and in silico evaluation of twelve newly-synthesized 1-acetamide-5-methoxy-2-oxindoles as 5-Ht₇ receptor ligands” (Bioorg Med Chem Lett, 2015);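 note: displacement of bound [3H]-SB269970 at the 5-HT7 receptor (origin unspecified), test concentration 10 µM, 60 min incubation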",
  "data": [
    {"molecular_target": "5-hydroxytryptamine receptor 7 (Homo sapiens) (UniProt P34969)", "sequence (P34969 whole entry)": "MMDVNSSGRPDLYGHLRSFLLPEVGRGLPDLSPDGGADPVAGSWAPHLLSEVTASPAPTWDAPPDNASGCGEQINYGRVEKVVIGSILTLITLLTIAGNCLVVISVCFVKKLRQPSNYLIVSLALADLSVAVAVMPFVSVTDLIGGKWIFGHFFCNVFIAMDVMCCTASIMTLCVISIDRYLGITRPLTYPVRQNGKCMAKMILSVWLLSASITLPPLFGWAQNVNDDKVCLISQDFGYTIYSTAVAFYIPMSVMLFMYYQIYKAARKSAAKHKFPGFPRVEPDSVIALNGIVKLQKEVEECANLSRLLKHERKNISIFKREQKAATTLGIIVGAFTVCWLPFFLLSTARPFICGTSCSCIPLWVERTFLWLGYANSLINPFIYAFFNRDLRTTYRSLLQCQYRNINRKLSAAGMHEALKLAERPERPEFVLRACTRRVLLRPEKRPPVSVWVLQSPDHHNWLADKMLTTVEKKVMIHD", "description": "Displacement of [3H]-SB269970 from 5-HT7 receptor (unknown origin) at 10 uM after 60 mins", "values": [
      {"smiles": "COc1ccc2c(c1)CC(=O)N2C(C(=O)Nc1c(C)cccc1C)C(C)(C)C", "note": "(configuration not stated)", "log(activity)": 0.954},
      {"smiles": "COc1ccc2c(c1)CC(=O)N2C(C(=O)NC1CCCCC1)c1ccc(Cl)cc1", "note": "(configuration not stated)", "log(activity)": 1.3},
      {"smiles": "COc1ccc2c(c1)CC(=O)N2C(C(=O)NC(C)(C)C)C(C)(C)C", "note": "(configuration not stated)", "log(activity)": 1.15},
      {"smiles": "COc1ccc2c(c1)CC(=O)N2C(C(=O)NC(C)(C)C)c1ccc(Cl)cc1", "note": "(configuration not stated)", "log(activity)": 1.2},
      {"smiles": "COc1ccc2c(c1)CC(=O)N2C(C(=O)Nc1c(C)cccc1C)c1ccc(Cl)cc1", "note": "(configuration not stated)", "log(activity)": 1.25},
      {"smiles": "COc1ccc2c(c1)CC(=O)N2C(C(=O)Nc1c(C)cccc1C)C(C)C", "note": "(configuration not stated)", "log(activity)": 1.38},
      {"smiles": "COc1ccc2c(c1)CC(=O)N2C(C(=O)NC(C)(C)C)C(C)C", "note": "(configuration not stated)", "log(activity)": 1.48},
      {"smiles": "COc1ccc2c(c1)CC(=O)N2C(C(=O)NC1CCCCC1)C(C)C", "note": "(configuration not stated)", "log(activity)": 1.2},
      {"smiles": "COc1ccc2c(c1)CC(=O)N2C(C(=O)NC(C)(C)C)c1ccccc1", "note": "(configuration not stated)", "log(activity)": 1.18},
      {"smiles": "COc1ccc2c(c1)CC(=O)N2C(C(=O)NC1CCCCC1)C(C)(C)C", "note": "(configuration not stated)", "log(activity)": 1.04},
      {"smiles": "COc1ccc2c(c1)CC(=O)N2C(C(=O)NC1CCCCC1)c1ccccc1", "note": "(configuration not stated)", "log(activity)": 1},
      {"smiles": "COc1ccc2c(c1)CC(=O)N2C(C(=O)Nc1c(C)cccc1C)c1ccccc1", "note": "(configuration not stated)", "log(activity)": 1.2}
    ]}
  ]
}
